Laboratory results as given in the NIST ThermoML archive (doi:10.1021/je1001544).
Numbers after ± are expanded uncertainties.

What was measured:
[1] = 298.15 K; 101.33 kPa; Liquid; Vibrating tube method
[2] = refractive index (Na D-line) (dimensionless); details: 298.15 K; 101.33 kPa; Liquid; Standard Abbe refractometry

Structure (SMILES)	mass density [1] [kg/m3]	refractive index [2]
CCCCCCCC [octane]	698.6 ± 0.18	1.39519 ± 0.00033
CCCCCCC [heptane]	679.56 ± 0.18	1.38515 ± 0.00033
CCCCCC [hexane]	655.19 ± 0.25	1.37234 ± 0.00037
CCOS(=O)(=O)[O-].CCn1cc[n+](C)c1 [1-ethyl-3-methylimidazolium ethyl sulfate]	1237.23 ± 0.43	1.4791 ± 0.00037
CCCCCCCCC [nonane]	713.99 ± 0.25	1.40326 ± 0.00037
c1ccccc1 [benzene]	873.57 ± 0.1	1.49774 ± 0.00031
